pIC50: −log10 of the molar value.

The subject of one test is T47D pAKT (S473), PI3Kα H1047R mutation present. Kind of test: HTRF pAKT-T47D.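 Further: assay medium was RPMI with 10% FBS and 0.2 units/ml bovine insulin, without phenol red.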 Particulars: Homo sapiens, T47D, 1 h, read-out: T47D pAKT IC50 (nM).
Protocol: Homogenous Time-Resolved Fluorescence (HTRF)—pAKT-T47D
Compounds were assayed using homogeneous time-resolved fluorescence (HTRF).
Gibco RPMI 1640 Medium, no phenol red; Gibco RPMI 1640 Medium; Gibco Trypsin-EDTA (0.5%), no phenol red; Gibco DPBS; Trypan blue solution 0.4% (Corning); Avantor Seradigm Premium Grade Fetal Bovine Serum (FBS); Greiner 784080-384 well TC treated white plates; pAKT (Ser473) HTRF; Gibco Insulin, human recombinant, zinc solution; Gibco Recovery Cell Culture Freezing Medium; Countess II FL Automated Cell Counter (ThermoFisher); Countess II Slides (ThermoFisher); Microscope; and PHERAstar FSX Microplate Reader (BMG LABTECH, Inc.).
The scinamic cell line ID was T47D.1, the HTRF detection was pAKT (S473), a PI3Kα H1047R mutation was present, the seeding density was 5000, the timepoint was 1 hour, and the medium used was RPMI+10% FBS (no phenol red)+0.2 units/ml bovine insulin.
• The cell density was not permitted to reach 100% confluence. The cells were split 1:5 when they reached ˜80% confluence. • Cells were split twice a week (Mon and Fri). • Cells over passage 18 were not used (˜2 months of maintenance). • Antibiotics were not used for tissue culture maintenance or assays. […] Protocol Day1
The procedure was as follows: • 1. Prepared ARP: • a. Stamped 12.5 nL from 10 μmM source plate to destination plate using Echo. Sealed plate immediately and froze at −20° C. if it was not used on the same day. • b. If a frozen ARP was used, the plate was thawed and spun at 1000 rpm×1 min. • 2. Preparation of cells (adherent): • a. Aspirated media from cells. Washed cells with sterile 1XPBS. Aspirated PBS and added appropriate amount of Trypsin. • b. Once cells were fully trypsinized, added appropriate media to resuspend cells. Transferred cells to a 15 mL or 50 mL conical tube. • c. Counted cells on the Countess II Cell Counter. • 3. Plating of cells: • a. Prepared cells at appropriate plating density. Dispensed 12 μL of diluted cells per well of a Greiner 784080-384 well TC treated white plate using a Multidrop Combi to columns 1-23. Added 12 uL of appropriate phenol free media only to column 24. • b. Placed plates in 37° C. tissue culture incubator for appropriate treatment time (refer to “Assay” table). • 4. Prepared HTRF Lysis Buffer • a. Calculate the amount of HTRF lysis buffer master mix needed to perform the desired experiments plus any extra dead volume required for dispensing (4 μL required per well). […] Add 4 uL Lysis buffer master mix to all wells with sample or DMSO. Centrifuge the plates for 1 minute at 1000 rpm. • c. Incubate at room temperature for 30 minutes. • 5. Prepared HTRF Antibody • a.
Turning to `CC(=O)Nc1ncc(NC(=O)N[C@H](c2oc3ccc(F)cc3c2C)C(C)C)cn1` [Compound 159], the half-inhibitory concentration (IC50) – broadly, the concentration that gives 50% inhibition – was under 1000 nM.

Staying with this test, now noted: Homo sapiens, T47D, 1 h, read-out: T47D pAKT IC50 (nM), T47D.1 cells, pAKT (S473) HTRF, 1 hour.
Take `CC[C@H](NC(=O)Nc1cnc(N)nc1)c1oc2ccc(F)cc2c1C` (single isomer, unassigned) [Compound 100]: the IC50 was under 1000 nM. In the case of `Cc1c([C@H](NC(=O)Nc2cnc(N3CC(C(N)=O)C3)nc2)C(F)(F)F)oc2c(F)cc(F)cc12` [Compound 212], the IC50 is over 5000 nM.

With `Cc1c([C@@H](NC(=O)Nc2cnc(OCCO)nc2)C(C)C)oc2ccc(F)cc12` [Compound 151, (S)-1-(1-(5-fluoro-3-methylbenzofuran-2-yl)-2-methylpropyl)-3-(2-(2-hydroxyethoxy)pyrimidin-5-yl)urea], the IC50 was under 1000 nM. Turning to `Cc1c([C@@H](NC(=O)Nc2cnc(N3CCNCC3)nc2)C(C)C)oc2ccc(F)cc12` [Compound 106, (S)-1-(1-(5-fluoro-3-methylbenzofuran-2-yl)-2-methylpropyl)-3-(2-(piperazin-1-yl)pyrimidin-5-yl)urea], the half-maximal inhibitory concentration (IC50) was in the range of 1000 to 5000 nM. `Cc1c([C@@H](NC(=O)Nc2cnc(N3CC(O)C3)nc2)C(C)C)oc2ccc(F)cc12` [Compound 87, (S)-1-(1-(5-fluoro-3-methylbenzofuran-2-yl)-2-methylpropyl)-3-(2-(3-hydroxyazetidin-1-yl)pyrimidin-5-yl)urea]: the IC50 was under 1000 nM.

With `Cc1c([C@@H](NC(=O)Nc2cnc(N3CC(O)C3)nc2)C(F)(F)F)oc2c(F)cc(F)cc12` (single isomer, unassigned) [Compound 91], the IC50 was under 1000 nM. `Cc1c([C@@H](NC(=O)Nc2cnc(N3CCC(C)(O)CC3)nc2)C(C)C)oc2ccc(F)cc12` [Compound 141]: the IC50 was under 1000 nM. On the same count and under the same terms, to `Cc1c([C@H](NC(=O)Nc2cnc(N3CC(C(C)(C)O)C3)nc2)C(F)(F)F)oc2c(F)cc(F)cc12` [Compound 206] belongs over 5000 nM. On to `Cc1c([C@@H](NC(=O)Nc2ccc3[nH]ncc3c2)C(F)(F)F)oc2c(F)cc(F)cc12` [Compound 194, 3-[(1R)-1-(5,7-difluoro-3-methyl-1-benzofuran-2-yl)-2,2,2-trifluoroethyl]-1-(1H-indazol-5-yl)urea], for which the IC50 was under 1000 nM.

On to `Cc1c([C@@H](NC(=O)Nc2cnc(N3CC(O)C3)nc2)C(F)(F)F)oc2ccc(F)cc12` [Compound 89, (R)-1-(2-(3-hydroxyazetidin-1-yl)pyrimidin-5-yl)-3-(2,2,2-trifluoro-1-(5-fluoro-3-methylbenzofuran-2-yl)ethyl)urea], for which the IC50 is under 1000 nM.

In the case of `Cc1c([C@@H](NC(=O)Nc2cnc(N3CCNC(=O)C3)nc2)C(C)C)oc2ccc(F)cc12` [Compound 139], the concentration for half-maximal inhibition (IC50) was under 1000 nM. For `Cc1c([C@@H](NC(=O)Nc2cnc(N3CCSCC3)nc2)C(C)C)oc2ccc(F)cc12` [Compound 145, 3-[(1S)-1-(5-fluoro-3-methyl-1-benzofuran-2-yl)-2-methylpropyl]-1-[2-(thiomorpholin-4-yl)pyrimidin-5-yl]urea], the IC50 was under 1000 nM. Take `COC(=O)Nc1ncc(NC(=O)N[C@H](c2oc3ccc(F)cc3c2C)C(C)C)cn1` [Compound 162, methyl N-[5-({[(1S)-1-(5-fluoro-3-methyl-1-benzofuran-2-yl)-2-methylpropyl]carbamoyl}amino)pyrimidin-2-yl]carbamate]: the IC50 was under 1000 nM. Regarding `Cc1c([C@@H](NC(=O)Nc2cnc(N3CC4(CNC(=O)CO4)C3)nc2)C(C)C)oc2ccc(F)cc12` [Compound 166, 3-[(1S)-1-(5-fluoro-3-methyl-1-benzofuran-2-yl)-2-methylpropyl]-1-(2-{7-oxo-5-oxa-2,8-diazaspiro[3.5]nonan-2-yl}pyrimidin-5-yl)urea], the half-maximal inhibitory concentration (IC50) was under 1000 nM.

For the compound `Cc1c([C@@H](NC(=O)Nc2cnc3nccn3c2)C(C)C)oc2ccc(F)cc12` [Compound 160, (S)-1-(1-(5-fluoro-3-methylbenzofuran-2-yl)-2-methylpropyl)-3-(imidazo[1,2-a]pyrimidin-6-yl)urea], the IC50 was under 1000 nM. Regarding `Cc1c([C@@H](NC(=O)Nc2cnc(C(N)=O)nc2)C(C)C)oc2ccc(F)cc12` [Compound 78, (S)-5-(3-(1-(5-fluoro-3-methylbenzofuran-2-yl)-2-methylpropyl)ureido)pyrimidine-2-carboxamide], the half-maximal inhibitory concentration (IC50) fell in the range of 1000 to 5000 nM. For the compound `Cc1c([C@@H](NC(=O)Nc2cnc(N3CCNC3=O)nc2)C(C)C)oc2ccc(F)cc12` [Compound 161, 3-[(1S)-1-(5-fluoro-3-methyl-1-benzofuran-2-yl)-2-methylpropyl]-1-[2-(2-oxoimidazolidin-1-yl)pyrimidin-5-yl]urea], the IC50 was under 1000 nM.

For `Cc1c([C@@H](NC(=O)Nc2ccc3nc[nH]c(=O)c3c2)C(C)C)oc2ccc(F)cc12` [Compound 124, (S)-1-(1-(5-fluoro-3-methylbenzofuran-2-yl)-2-methylpropyl)-3-(4-oxo-3,4-dihydroquinazolin-6-yl)urea], the concentration for half-maximal inhibition (IC50) is 1000 to 5000 nM. `Cc1c([C@@H](NC(=O)Nc2cnc(NC[C@@H](C)O)nc2)C(C)C)oc2ccc(F)cc12` [Compound 143]: the IC50 was under 1000 nM. In the case of `Cc1c([C@@H](NC(=O)Nc2cnc(N3CCC(O)CC3)nc2)C(C)C)oc2ccc(F)cc12` [Compound 140], the IC50 is under 1000 nM.

With `COc1ncc(NC(=O)N[C@H](c2oc3ccc(F)cc3c2C)C(C)C)cn1` [Compound 150, (S)-1-(1-(5-fluoro-3-methylbenzofuran-2-yl)-2-methylpropyl)-3-(2-methoxypyrimidin-5-yl)urea], the IC50 is under 1000 nM.

Staying with this test, now noted: read-out: T47D pAKT IC50; T47D.1 cells, pAKT (S473) HTRF, 1 hour.
On to `Cc1c(C(NC(=O)Nc2cnc(N3CC(S(C)(=O)=O)C3)nc2)C(F)(F)F)oc2c(F)cc(F)cc12` (racemic) [Compound 186, 1-(1-(5,7-difluoro-3-methylbenzofuran-2-yl)-2,2,2-trifluoroethyl)-3-(2-(3-(methylsulfonyl)azetidin-1-yl)pyrimidin-5-yl)urea], for which the pIC50 (in general, the negative decadic logarithm of the IC50, by convention in mol/L) is over 6.00.

Regarding `Cc1c(C(NC(=O)Nc2cnc(N3CC(O)C3)nc2)C(F)(F)F)oc2ccc(Cl)cc12` (racemic) [Compound 154, 3-[1-(5-chloro-3-methyl-1-benzofuran-2-yl)-2,2,2-trifluoroethyl]-1-[2-(3-hydroxyazetidin-1-yl)pyrimidin-5-yl]urea], the negative-log IC50 (pIC50) is over 6.00. In the case of `Cc1c(C(NC(=O)Nc2cnc(N)nc2)C(F)(F)F)oc2c(C3CC3)cc(F)cc12` (single isomer, unassigned) [Compound 218, 1-(2-aminopyrimidin-5-yl)-3-[1-(7-cyclopropyl-5-fluoro-3-methyl-1-benzofuran-2-yl)-2,2,2-trifluoroethyl]urea], the pIC50 was over 6.00. In the case of `Cc1c(C(NC(=O)Nc2cnc(N[C@H](C)CO)nc2)C(F)(F)F)oc2c(F)cc(F)cc12` (single isomer, unassigned) [Compound 188], the negative logarithm of the IC50 (pIC50) is over 6.00. `Cc1c(C(NC(=O)Nc2cnc(N3CC(C(=O)O)C3)nc2)C(F)(F)F)oc2c(F)cc(F)cc12` (single isomer, unassigned) [Compound 197, 1-[5-({[1-(5,7-difluoro-3-methyl-1-benzofuran-2-yl)-2,2,2-trifluoroethyl]carbamoyl}amino)pyrimidin-2-yl]azetidine-3-carboxylic acid]: the negative-log IC50 (pIC50) was over 6.00.

As to `Cc1c(C(NC(=O)Nc2cnc(N)nc2)C(F)(F)F)oc2c(F)cc(Cl)cc12` (racemic) [Compound 156, 1-(2-aminopyrimidin-5-yl)-3-[1-(5-chloro-7-fluoro-3-methyl-1-benzofuran-2-yl)-2,2,2-trifluoroethyl]urea], the pIC50 is over 6.00.

On to `C[C@@H]1[C@@H](O)CN1c1ncc(NC(=O)NC(c2cc3cc(F)cc(F)c3o2)C(F)(F)F)cn1` (stereo partly drawn) [Compound 174, 3-[1-(5,7-difluoro-1-benzofuran-2-yl)-2,2,2-trifluoroethyl]-1-{2-[(2R,3S)-3-hydroxy-2-methylazetidin-1-yl]pyrimidin-5-yl}urea], for which the pIC50 was over 6.00. As for `Cc1c(C(NC(=O)Nc2cnc(N)nc2)C(F)(F)F)oc2c(Cl)cc(F)cc12` (racemic) [Compound 177, 1-(2-aminopyrimidin-5-yl)-3-[1-(7-chloro-5-fluoro-3-methyl-1-benzofuran-2-yl)-2,2,2-trifluoroethyl] urea], the negative-log IC50 (pIC50) was under 5.30. Turning to `Cc1c(C(NC(=O)Nc2cnc(N3CCC3)nc2)C(F)(F)F)oc2c(F)cc(F)cc12` (single isomer, unassigned) [Compound 224, 1-(2-(azetidin-1-yl)pyrimidin-5-yl)-3-(1-(5,7-difluoro-3-methylbenzofuran-2-yl)-2,2,2-trifluoroethyl)urea], the pIC50 is 5.30 to 6.00.

Regarding `Cc1c(C(NC(=O)Nc2cnc(N3CC(O)C3)nc2)C(F)(F)F)oc2ccc(Cl)cc12` (racemic) [Compound 153, 3-[1-(5-chloro-3-methyl-1-benzofuran-2-yl)-2,2,2-trifluoroethyl]-1-[2-(3-hydroxyazetidin-1-yl)pyrimidin-5-yl]urea], the pIC50 was under 5.30. On to `Cc1c(C(NC(=O)Nc2cnc(N)nc2)C(F)(F)F)oc2c(C)cc(F)cc12` (single isomer, unassigned) [Compound 213, 1-(2-aminopyrimidin-5-yl)-3-[2,2,2-trifluoro-1-(5-fluoro-3,7-dimethyl-1-benzofuran-2-yl)ethyl]urea], for which the negative-log IC50 (pIC50) was under 5.30. On to `Cc1c(C(NC(=O)Nc2cnc(N)nc2)C(F)(F)F)oc2c(C3CC3)cc(F)cc12` (single isomer, unassigned) [Compound 217, 1-(2-aminopyrimidin-5-yl)-3-[1-(7-cyclopropyl-5-fluoro-3-methyl-1-benzofuran-2-yl)-2,2,2-trifluoroethyl]urea], for which the pIC50 was under 5.30.

With `C[C@@H]1[C@@H](O)CN1c1ncc(NC(=O)NC(c2cc3cc(F)cc(F)c3o2)C(F)(F)F)cn1` (stereo partly drawn) [Compound 173, 3-[1-(5,7-difluoro-1-benzofuran-2-yl)-2,2,2-trifluoroethyl]-1-{2-[(2R,3S)-3-hydroxy-2-methylazetidin-1-yl]pyrimidin-5-yl}urea], the pIC50 is under 5.30. Still for that read-out and setting: then `Cc1c(C(NC(=O)Nc2cnc(N[C@@H](C)CO)nc2)C(F)(F)F)oc2c(F)cc(F)cc12` (single isomer, unassigned) [Compound 196], with over 6.00.

For the origin of these results see patent US12084434B2 (Scorpion Therapeutics, Inc., priority 2021, dated 2024).
